This note sets out measurements from article PMC10454375, “Cell-Impermeable Inhibitors Confirm That Intracellular Human Transglutaminase 2 Is Responsible for the Transglutaminase-Associated Cancer Phenotype” (International Journal of Molecular Sciences, 2023).

In one test the target is T1, TG3a (Homo sapiens, UniProt Q08188).
T1 construct: purchased Zedira GmbH (Darmstadt, Germany)
T1 sequence (Q08188 2-467 limits assumed): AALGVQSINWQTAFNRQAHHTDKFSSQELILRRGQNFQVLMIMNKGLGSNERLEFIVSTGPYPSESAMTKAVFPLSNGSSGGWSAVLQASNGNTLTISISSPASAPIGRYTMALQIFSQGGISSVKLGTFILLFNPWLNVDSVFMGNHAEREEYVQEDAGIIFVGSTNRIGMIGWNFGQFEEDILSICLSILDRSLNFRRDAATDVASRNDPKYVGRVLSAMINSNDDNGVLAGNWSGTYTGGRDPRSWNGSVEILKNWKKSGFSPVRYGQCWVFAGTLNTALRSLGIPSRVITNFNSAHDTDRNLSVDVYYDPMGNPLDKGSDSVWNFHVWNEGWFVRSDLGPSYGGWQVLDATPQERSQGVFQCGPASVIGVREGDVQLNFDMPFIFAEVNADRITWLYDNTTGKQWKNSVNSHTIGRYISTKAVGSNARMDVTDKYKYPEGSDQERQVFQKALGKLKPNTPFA
T1 sequence (Q08188 468-693 partner limits assumed): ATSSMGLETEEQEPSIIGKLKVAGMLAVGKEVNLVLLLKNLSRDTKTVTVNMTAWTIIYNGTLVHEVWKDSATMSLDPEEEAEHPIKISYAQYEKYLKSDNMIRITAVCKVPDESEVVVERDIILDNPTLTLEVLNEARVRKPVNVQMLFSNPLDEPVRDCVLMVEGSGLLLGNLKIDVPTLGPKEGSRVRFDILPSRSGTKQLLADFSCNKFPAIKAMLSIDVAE
Briefly: TGase isozyme selectivity, TG3a with A101 substrate. Conditions: [I]/α identical to that of the TG2 assay. It counts as biochemical. An excerpt:
(§1) In the development of probes for TGases, isozyme selectivity is always a significant challenge. Since the catalytic machinery of the active sites of all TGases features a conserved Gly-Gln-Cys-Trp-Val sequence, selectivity for one isozyme over the others requires exploitation of slight differences in the protein substrate binding sites. In order to assess the isozyme selectivity of our cell-impermeable inhibitors, TG2 and four other therapeutically relevant TGases (Factor XIII, TG1, TG3, and TG6) were exposed to a concentration of inhibitor representing the same apparent competition with respect to the assay substrate (AL5 [38] or A101 [42, 43]). In other words, both the substrate and inhibitor concentrations were varied so that the [I]/α values were identical. […] This provides confidence that in further applications, these cell-impermeable inhibitors will selectively target TG2 over other transglutaminases.
To monitor the activity of TG3a and TG6, a FRET-quenched substrate A101 (Zedira Gmbh) was used. […] The isopeptidase activity of the respective TGase was then monitored at Ex/Em = 313/418 nm with a BioTek Synergy 4 plate reader at 25 °C. […]

The target in another test is T2, TG6 (Homo sapiens, UniProt O95932).
T2 construct: purchased Zedira GmbH (Darmstadt, Germany)
T2 sequence (O95932 1-706): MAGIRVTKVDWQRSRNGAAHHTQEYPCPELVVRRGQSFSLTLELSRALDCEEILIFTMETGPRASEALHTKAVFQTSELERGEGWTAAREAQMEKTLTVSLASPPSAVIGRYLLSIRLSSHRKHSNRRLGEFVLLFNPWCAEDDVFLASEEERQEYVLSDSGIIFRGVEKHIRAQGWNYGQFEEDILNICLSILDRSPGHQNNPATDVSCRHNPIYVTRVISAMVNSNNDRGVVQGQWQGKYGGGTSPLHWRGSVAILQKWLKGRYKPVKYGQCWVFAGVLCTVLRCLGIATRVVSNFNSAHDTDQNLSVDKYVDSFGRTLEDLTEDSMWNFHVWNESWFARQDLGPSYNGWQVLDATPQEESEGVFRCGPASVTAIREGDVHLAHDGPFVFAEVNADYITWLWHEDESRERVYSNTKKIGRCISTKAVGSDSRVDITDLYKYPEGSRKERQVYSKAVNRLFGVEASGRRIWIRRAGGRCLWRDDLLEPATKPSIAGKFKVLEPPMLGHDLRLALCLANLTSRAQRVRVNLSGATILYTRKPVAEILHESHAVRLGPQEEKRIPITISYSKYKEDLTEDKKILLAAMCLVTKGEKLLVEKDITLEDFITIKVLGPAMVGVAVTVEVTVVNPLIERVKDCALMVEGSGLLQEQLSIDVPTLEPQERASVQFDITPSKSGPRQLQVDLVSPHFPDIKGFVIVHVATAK
Briefly: TGase isozyme selectivity, TG6 with AL5 substrate. It counts as biochemical. The conditions noted are these: [I]/α identical to that of the TG2 assay.
Description: as §1
[…] In brief, 125 µL assay buffer #1 (containing TRIS, CaCl2, and NaCl pH 7.5), 18 µL assay buffer #2 (containing TCEP and acceptor substrate H-Gly-OMe pH 7.5), and a respective concentration of inhibitor aqueous working stock balanced with various volumes of water were combined in a 96-well black plate with clear bottom/top. […] The isopeptidase activity of the respective TGase was then monitored at Ex/Em = 313/418 nm with a BioTek Synergy 4 plate reader at 25 °C. […]

Peptide text beside a SMILES is read from it. * marks the point of attachment. X1 = C=CC(=O)NCCCCC(NC(=O)OCc1ccccc1)C(=O)N1CCN(C(=O)C(CCC(=O)*)NC(=O)c2cccc3ccccc23)CC1

For the molecule `C=CC(=O)NCCCCC(NC(=O)OCc1ccccc1)C(=O)N1CCN(C(=O)C(CCC(=O)NCCCCCC(=O)NC(CC(=O)O)C(=O)NC(CC(=O)O)C(=O)NC(CC(=O)O)C(=O)O)NC(=O)c2cccc3ccccc23)CC1` (stereo not shown) [Compound 17], the “inhibition of TG3” value at TG3a was “no detectable inhibition”. The “inhibition of TG6” value on TG6 is reported as “no detectable inhibition”.
Turning to `C=CC(=O)NCCCCC(NC(=O)OCc1ccccc1)C(=O)N1CCN(C(=O)C(CCC(=O)NCC(=O)NCC(=O)NCC(=O)NC(CC(=O)O)C(=O)NC(CC(=O)O)C(=O)NC(CC(=O)O)C(=O)O)NC(=O)c2cccc3ccccc23)CC1` (stereo not shown) [Compound 18] (X1-GGGDDD-OH; configuration not given here), on TG3a, the “inhibition of TG3” value is given as “no detectable inhibition”. For the same molecule, the “inhibition of TG6” value at TG6 is “no detectable inhibition”.
